These results are taken from paper PMC8900595 (Journal of medicinal chemistry, 2021).

The experiment has as its system H1N1 A/WSN/1933 virus. Format: cell-based, influenza A virus.

As to `CCN(c1ccccc1C)S(=O)(=O)c1cc(Cl)ccc1Cl` [compound 1, 2,5-dichloro-N-ethyl-N-(o-tolyl)-benzenesulfonamide], the “concentration required for maximum virus inhibition (three logs) while maintaining enough virus production for passages” value came out at 0.5 μM.
